Source: patent US9139532B2, “Pyrazolyl guanidine F1F0-atpase inhibitors and therapeutic uses thereof” (Lycera Corporation, priority 2010, dated 2015)
pEC50, pIC50: −log10 of the molar value. Where two headings read alike, the source gives them in different places.

Key:
[1] = target: T1, F1F0-ATPase (Bos taurus, UniProt P13621); experiment: Inhibition of F1F0-ATPase activity in synthesizing ATP; format: biochemical; settings: inhibition of ATP synthesis by F1F0-ATPase; read-out: ATP Syn IC50
T1 construct: from tissue

[2] = test system: Ramos cells; experiment: Cytotoxicity in Ramos cells; format: cell-based; settings: Homo sapiens, read-out: Ramos Cell EC50

Compound | pIC50 [1] | pEC50 ([2]; cytotoxicity in Ramos cells) | pEC50 ([2]; Ramos)
CC(C)N/C(=N/C(=O)c1ccc(Cl)cc1)Nc1cc(C(F)F)[nH]n1 [Compound A-55] | > 5.00 | < 5.00 | –
O=C(/N=C(/NCc1ccc(F)c(Cl)c1)Nc1cc(C(F)F)[nH]n1)c1ccc(Cl)cc1 [Compound A-56] | > 5.00 | < 5.00 | –
O=C(/N=C(/Nc1cc(F)cc(Cl)c1)Nc1cc(C(F)F)[nH]n1)c1ccc(Cl)cc1 [Compound A-57] | > 5.00 | > 5.00 | –
CC(C)N/C(=N/C(=O)c1ccc(C(F)(F)F)cc1)Nc1cc(C(F)F)[nH]n1 [Compound A-58] | > 5.00 | < 5.00 | –
O=C(/N=C(/NCc1ccc(F)c(Cl)c1)Nc1cc(C(F)F)[nH]n1)c1ccc(C(F)(F)F)cc1 [Compound A-59] | > 5.00 | < 5.00 | –
O=C(/N=C(/Nc1cc(F)cc(Cl)c1)Nc1cc(C(F)F)[nH]n1)c1ccc(C(F)(F)F)cc1 [Compound A-60] | > 5.00 | > 5.00 | –
O=C(/N=C(/NCc1ccc(F)c(Cl)c1)Nc1cc(C(F)F)[nH]n1)c1ccc(F)c(F)c1 [Compound A-61] | > 5.00 | < 5.00 | –
CC(C)(C)N/C(=N/C(=O)c1ccc(F)c(F)c1)Nc1cc(C(F)F)[nH]n1 [Compound A-62] | > 5.00 | > 5.00 | –
CC(C)N/C(=N/C(=O)c1ccc(F)c(F)c1)Nc1cc(C(F)F)[nH]n1 [Compound A-63] | > 5.00 | < 5.00 | –
CC(C)(C)N/C(=N/C(=O)c1ccc(C(F)F)cc1)Nc1cc(C(F)(F)F)[nH]n1 [Compound A-64] | > 5.00 | > 5.00 | –
CC(C)(C)N/C(=N/C(=O)c1ccc(Cl)c(F)c1)Nc1cc(C(F)F)[nH]n1 [Compound A-65] | > 5.00 | > 5.00 | –
CC(C)(C)CN/C(=N/C(=O)c1ccc(C(F)F)cc1)Nc1cc(C(F)(F)F)[nH]n1 [Compound A-66] | > 5.00 | > 5.00 | –
O=C(/N=C(\Nc1cc(C(F)(F)F)[nH]n1)NC1CCCC1)c1ccc(C(F)F)cc1 [Compound A-67] | > 5.00 | > 5.00 | –
CC(C)(C)CN/C(=N/C(=O)c1ccc(C(F)(F)F)cc1)Nc1cc(C(F)F)[nH]n1 [Compound A-68] | > 5.00 | > 5.00 | –
CC(C)(C)CN/C(=N/C(=O)c1ccc(Cl)cc1)Nc1cc(C(F)F)[nH]n1 [Compound A-69] | > 5.00 | > 5.00 | –
CC(C)(C)CN/C(=N/C(=O)c1ccc(C#N)cc1)Nc1cc(C(F)(F)F)[nH]n1 [Compound A-70] | > 5.00 | > 5.00 | –
CC(C)(C)N/C(=N/C(=O)c1ccc(C#N)cc1)Nc1cc(C(F)(F)F)[nH]n1 [Compound A-71] | > 5.00 | > 5.00 | –
CC(C)(C)CN/C(=N/C(=O)c1cccc(C#N)c1)Nc1cc(C(F)(F)F)[nH]n1 [Compound A-72] | > 5.00 | > 5.00 | –
CC(C)(C)N/C(=N/C(=O)c1cccc(C#N)c1)Nc1cc(C(F)(F)F)[nH]n1 [Compound A-73] | > 5.00 | > 5.00 | –
CCC(C)(C)N/C(=N/C(=O)c1ccc(C(F)F)cc1)Nc1cc(C(F)(F)F)[nH]n1 [Compound A-74] | > 5.00 | > 5.00 | –
O=C(/N=C(\Nc1cc(C(F)(F)F)[nH]n1)NC1CCCC1)c1cccc(C(F)(F)F)c1 [Compound A-75] | > 5.00 | > 5.00 | –

Compound | pIC50 [1] | pEC50 ([2]; cytotoxicity in Ramos cells) | pEC50 ([2]; Ramos)
CC(C)(C)CN/C(=N/C(=O)c1cccc(C(F)(F)F)c1)Nc1cc(C(F)(F)F)[nH]n1 [Compound A-76] | > 5.00 | > 5.00 | –
CC(C)(C)N/C(=N/C(=O)c1cccc(C(F)(F)F)c1)Nc1cc(C(F)(F)F)[nH]n1 [Compound A-77] | > 5.00 | > 5.00 | –
CCC(C)(C)N/C(=N/C(=O)c1cccc(C(F)(F)F)c1)Nc1cc(C(F)(F)F)[nH]n1 [Compound A-78] | > 5.00 | > 5.00 | –
CC(C)(C)N/C(=N/C(=O)c1ccc(C(F)(F)F)nc1)Nc1cc(C(F)(F)F)[nH]n1 [Compound A-79] | > 5.00 | > 5.00 | –
CC(C)(C)CN/C(=N/C(=O)c1ccc(C(F)(F)F)nc1)Nc1cc(C(F)(F)F)[nH]n1 [Compound A-80] | > 5.00 | > 5.00 | –
N#Cc1ccc(C(=O)/N=C(/NCc2ccc(F)cc2Cl)Nc2cc(C(F)(F)F)[nH]n2)cc1 [Compound A-81] | > 5.00 | > 5.00 | –
N#Cc1cccc(C(=O)/N=C(/NCc2ccc(F)cc2Cl)Nc2cc(C(F)(F)F)[nH]n2)c1 [Compound A-82] | > 5.00 | – | > 5.00
O=C(/N=C(/NCc1ccc(F)cc1Cl)Nc1cc(C(F)(F)F)[nH]n1)c1ccc(C(F)F)cc1 [Compound A-83] | > 5.00 | > 5.00 | –
Cc1cc(C(=O)/N=C(\Nc2cc(C(F)(F)F)[nH]n2)NC(C)(C)C)ccn1 [Compound A-84] | > 5.00 | < 5.00 | –
Cc1cc(C(=O)/N=C(/NCC(C)(C)C)Nc2cc(C(F)(F)F)[nH]n2)ccn1 [Compound A-85] | > 5.00 | < 5.00 | –
Cc1cc(C(=O)/N=C(/NCc2ccc(F)cc2Cl)Nc2cc(C(F)(F)F)[nH]n2)ccn1 [Compound A-86] | > 5.00 | < 5.00 | –
O=C(/N=C(\Nc1cc(C(F)(F)F)[nH]n1)NC1CCCCCC1)c1ccc(C(F)F)cc1 [Compound A-87] | > 5.00 | > 5.00 | –
CC(C)(C)CN/C(=N/C(=O)c1ccc(F)c(F)c1)Nc1cc(C(F)F)[nH]n1 [Compound A-88] | > 5.00 | > 5.00 | –
CC(N/C(=N\C(=O)c1ccc(C(F)(F)F)cc1)Nc1cc(C(F)(F)F)n[nH]1)c1cccc(Cl)c1 (stereo not shown) [Compound A-89] | > 5.00 | > 5.00 | –
CC(C)N/C(=N/C(=O)c1ccc(C(F)(F)F)cc1)Nc1cc(C(F)(F)F)n[nH]1 [Compound A-90] | > 5.00 | > 5.00 | –
O=C(/N=C(\Nc1cc(C(F)(F)F)n[nH]1)NC1CCC1)c1ccc(C(F)(F)F)cc1 [Compound A-91] | > 5.00 | > 5.00 | –
O=C(/N=C(/Nc1cc(C(F)(F)F)n[nH]1)NC1CCCC1)c1ccc(C(F)(F)F)cc1 [Compound A-92] | > 5.00 | > 5.00 | –
CCC(C)(C)N/C(=N/C(=O)c1ccc(C(F)(F)F)cc1)Nc1cc(C(F)(F)F)n[nH]1 [Compound A-93] | > 5.00 | > 5.00 | –
C[C@H](N/C(=N\C(=O)c1ccc(C(F)(F)F)cc1)Nc1cc(C(F)(F)F)n[nH]1)C1CCCCC1 [Compound A-94] | > 5.00 | > 5.00 | –
O=C(/N=C(\Nc1cc(C(F)(F)F)n[nH]1)NC1CCOCC1)c1ccc(C(F)(F)F)cc1 [Compound A-95] | > 5.00 | > 5.00 | –
O=C(/N=C(\Nc1cc(C(F)(F)F)n[nH]1)NC1CCCOC1)c1ccc(C(F)(F)F)cc1 (stereo not shown) [Compound A-96] | > 5.00 | > 5.00 | –

Compound | pIC50 [1] | pEC50 ([2]; cytotoxicity in Ramos cells) | pEC50 ([2]; Ramos)
COCC(C)N/C(=N/C(=O)c1ccc(C(F)(F)F)cc1)Nc1cc(C(F)(F)F)n[nH]1 (stereo not shown) [Compound A-97] | > 5.00 | > 5.00 | –
CC(C)N/C(=N/C(=O)c1ccc(F)c(F)c1)Nc1cc(C(F)(F)F)n[nH]1 [Compound A-98] | > 5.00 | > 5.00 | –
O=C(/N=C(\Nc1cc(C(F)(F)F)n[nH]1)NC1CCC1)c1ccc(F)c(F)c1 [Compound A-99] | > 5.00 | > 5.00 | –
O=C(/N=C(/Nc1cc(C(F)(F)F)n[nH]1)NC1CCCC1)c1ccc(F)c(F)c1 [Compound A-100] | > 5.00 | > 5.00 | –
CCC(C)(C)N/C(=N/C(=O)c1ccc(F)c(F)c1)Nc1cc(C(F)(F)F)n[nH]1 [Compound A-101] | > 5.00 | > 5.00 | –
C[C@@H](N/C(=N\C(=O)c1ccc(F)c(F)c1)Nc1cc(C(F)(F)F)n[nH]1)C1CCCCC1 [Compound A-102] | > 5.00 | > 5.00 | –
O=C(/N=C(/Nc1cc(C(F)(F)F)n[nH]1)NC1CCOC1)c1ccc(F)c(F)c1 (stereo not shown) [Compound A-103] | > 5.00 | > 5.00 | –
O=C(/N=C(\Nc1cc(C(F)(F)F)n[nH]1)NC1CCOCC1)c1ccc(F)c(F)c1 [Compound A-104] | > 5.00 | < 5.00 | –
O=C(/N=C(\Nc1cc(C(F)(F)F)n[nH]1)NC1CCCOC1)c1ccc(F)c(F)c1 (stereo not shown) [Compound A-105] | > 5.00 | > 5.00 | –
COCC(C)N/C(=N/C(=O)c1ccc(F)c(F)c1)Nc1cc(C(F)(F)F)n[nH]1 (stereo not shown) [Compound A-106] | > 5.00 | > 5.00 | –
CC(C)N/C(=N/C(=O)c1ccc(Cl)cc1)Nc1cc(C(F)(F)F)n[nH]1 [Compound A-107] | > 5.00 | > 5.00 | –
O=C(/N=C(\Nc1cc(C(F)(F)F)n[nH]1)NC1CCC1)c1ccc(Cl)cc1 [Compound A-108] | > 5.00 | > 5.00 | –
C[C@H](N/C(=N\C(=O)c1ccc(Cl)cc1)Nc1cc(C(F)(F)F)n[nH]1)C1CCCCC1 [Compound A-109] | > 5.00 | > 5.00 | –
O=C(/N=C(\Nc1cc(C(F)(F)F)n[nH]1)NC1CCCOC1)c1ccc(Cl)cc1 (stereo not shown) [Compound A-110] | > 5.00 | > 5.00 | –
COCC(C)N/C(=N/C(=O)c1ccc(Cl)cc1)Nc1cc(C(F)(F)F)n[nH]1 (stereo not shown) [Compound A-111] | > 5.00 | > 5.00 | –
O=C(/N=C(/Nc1cc(C(F)(F)F)n[nH]1)NC1CCS(=O)(=O)C1)c1ccc(Cl)cc1 (stereo not shown) [Compound A-112] | > 5.00 | < 5.00 | –
CC(C)N/C(=N/C(=O)c1ccc(Cl)c(F)c1)Nc1cc(C(F)(F)F)n[nH]1 [Compound A-113] | > 5.00 | > 5.00 | –
O=C(/N=C(\Nc1cc(C(F)(F)F)n[nH]1)NC1CCC1)c1ccc(Cl)c(F)c1 [Compound A-114] | > 5.00 | > 5.00 | –
O=C(/N=C(/Nc1cc(C(F)(F)F)n[nH]1)NC1CCCC1)c1ccc(Cl)c(F)c1 [Compound A-115] | > 5.00 | > 5.00 | –
CCC(C)(C)N/C(=N/C(=O)c1ccc(Cl)c(F)c1)Nc1cc(C(F)(F)F)n[nH]1 [Compound A-116] | > 5.00 | > 5.00 | –
